Measurements published in patent US10508113B2, “Inhibitors of tyrosine kinase 2 mediated signaling” (AbbVie Inc., priority 2018, dated 2019).

Target: T1, Tyk2/Jak2 (Homo sapiens, UniProt P29597)
T1 construct: Cell Type: Frozen primary phytohemagglutinin (PHA) T-Blasts; endogenous in cells; host or cells: primary PHA T-blasts
Assay: Tyk2 (Tyk2/Jak2 PSTAT4 T-Blast) alpha screen assay: inhibition of IL-12 induced phosphorylation of STAT4 in T-blast cells
Format: cell-based
Details: IL-12 induced pSTAT4, T-blast cells
Procedure: 1. TYK2 (TYK2/JAK2 PSTAT4 T-BLAST) ALPHA SCREEN ASSAY
IL-12 is known to transduce its signal through IL-12 receptor via Jak2 and/or Tyk2. For that reason, the activity against Tyk2/Jak2 was measured by determining the inhibition of IL-12 induced phosphorylation of STAT4 in T-blast cells. […] See, e.g., Sohn et al., J. Immunology (2013) 2205-2216.
Cell Type: Frozen primary phytohemagglutinin (PHA) T-Blasts; Culture Medium: Roswell Park Memorial Institute (RPMI) 1640 Medium, 10% heat-inactivated fetal bovine serum (FBS), 1% penicillin/streptomycin (Pen-Strep), 10 mM hydroxyethyl piperazineethanesulfonic acid (HEPES), 10 ng/mL recombinant human interleukin-12 (rhIL-12); Assay Medium: Hank's Balanced Salt Solution (HBSS), no phenol red.
i. Automated 11-point 1:3 dilution curve: 2.5 mM top concentration dispensed in column 1 of a Corning 96-well polypropylene plate. Dimethyl sulfoxide (DMSO) was added to column 12 for high and low controls. Compounds were serially diluted 1:3 by adding 20 uL stock to 40 μL DMSO across the plate via Hamilton Microlab Star instrument.
ii. Media dilution of compounds: Serially diluted compounds were diluted 1:50 in assay medium by adding 4 μL compound to 196 μL assay medium in a Corning 96-well polypropylene plate (now 2% DMSO).
iii. […]
Primary T-Blasts from overnight culture were centrifuged, washed once in assay medium, and pelleted. T-Blasts were counted and resuspended at 12,500,000 cells/mL. […]
Phosphorylated Signal Transducer and Activator of Transcription 4 (pSTAT4) was quantified using the PerkinElmer SureFire Ultra pSTAT4 (Tyrosine 693) Assay. […]
Make master mix of Protein A donor beads using the following volumes per well: 5.88 μL Dilution Buffer and 0.12 μL […]. […] Read plate on Perkin Elmer Envision. […]
Certain compounds listed in Table C were tested for Tyk2 activity following the aforementioned Tyk2 (Tyk2/Jak2 PSTAT4 T-Blast) alpha screen assay and Jak2 (PTATS UT7) alpha screen assay. […] Selectivity for Tyk2 over Jak1, and Tyk2 over Jak2, are calculated from the tabulated activity data.

T1 sequence (P29597 whole entry, other chains not shown): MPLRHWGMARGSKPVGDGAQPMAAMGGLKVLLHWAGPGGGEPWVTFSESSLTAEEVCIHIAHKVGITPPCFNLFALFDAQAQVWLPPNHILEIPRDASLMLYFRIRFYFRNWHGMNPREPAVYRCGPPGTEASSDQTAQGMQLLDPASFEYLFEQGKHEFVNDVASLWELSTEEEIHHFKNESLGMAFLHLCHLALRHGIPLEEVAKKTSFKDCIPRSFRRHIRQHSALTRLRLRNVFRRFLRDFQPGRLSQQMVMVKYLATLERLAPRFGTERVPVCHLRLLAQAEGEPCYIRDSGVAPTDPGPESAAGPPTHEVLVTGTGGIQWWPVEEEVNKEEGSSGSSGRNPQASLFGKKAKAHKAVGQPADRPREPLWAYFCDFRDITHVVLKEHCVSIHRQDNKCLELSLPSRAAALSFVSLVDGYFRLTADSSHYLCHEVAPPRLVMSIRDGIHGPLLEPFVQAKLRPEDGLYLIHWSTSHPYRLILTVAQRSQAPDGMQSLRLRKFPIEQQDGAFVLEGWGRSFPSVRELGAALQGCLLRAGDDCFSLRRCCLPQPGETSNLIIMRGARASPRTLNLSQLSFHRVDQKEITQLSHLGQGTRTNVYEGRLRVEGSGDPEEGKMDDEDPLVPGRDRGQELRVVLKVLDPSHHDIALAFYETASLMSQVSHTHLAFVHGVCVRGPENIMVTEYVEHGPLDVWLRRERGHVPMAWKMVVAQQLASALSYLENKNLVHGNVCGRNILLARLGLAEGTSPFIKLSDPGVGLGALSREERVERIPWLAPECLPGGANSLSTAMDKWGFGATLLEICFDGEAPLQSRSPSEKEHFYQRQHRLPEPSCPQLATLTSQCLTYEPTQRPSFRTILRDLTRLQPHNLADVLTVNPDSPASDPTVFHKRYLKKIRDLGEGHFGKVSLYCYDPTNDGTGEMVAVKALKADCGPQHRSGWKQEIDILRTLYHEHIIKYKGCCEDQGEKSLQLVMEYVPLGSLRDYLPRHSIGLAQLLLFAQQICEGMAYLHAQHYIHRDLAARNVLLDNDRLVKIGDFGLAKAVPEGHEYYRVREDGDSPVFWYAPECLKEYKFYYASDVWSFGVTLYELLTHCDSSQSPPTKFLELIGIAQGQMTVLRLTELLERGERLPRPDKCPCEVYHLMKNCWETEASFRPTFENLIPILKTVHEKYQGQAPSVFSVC

COCc1cc(-c2cn(C)c3cnc(NC(C)=O)cc23)nc([C@]2([C@H](C)O)CCOC2)c1 [Example 22.3, N-(3-(6-((R)-3-((S)-1-hydroxyethyl)tetrahydrofuran-3-yl)-4-(methoxymethyl)pyridin-2-yl)-1-methyl-1H-pyrrolo[2,3-c]pyridin-5-yl)acetamide]
EC50: 147 nM

COCc1cc(-c2cn(C)c3cnc(NC(C)=O)cc23)nc([C@]2([C@@H](C)O)CCOC2)c1 [Example 22.4, N-(3-(6-((R)-3-((R)-1-hydroxyethyl)tetrahydrofuran-3-yl)-4-(methoxymethyl)pyridin-2-yl)-1-methyl-1H-pyrrolo[2,3-c]pyridin-5-yl)acetamide]
EC50: 112 nM
